Experimental data from patent US7091018B2, “Enzyme gene and its expression product” (Otsuka Pharmaceutical Co., Ltd., priority 2000, dated 2006).

What was measured:
GFAT1S = molecular target: T1, GFAT1S (Homo sapiens, UniProt Q06210); assay: GFAT activity assay (spectrophotometric, GDH/APAD coupled): Km values and inhibition pattern of UDP-G1cNAc, GFAT1S; assay type: biochemical
T1 construct: made in house; host or cells: E. coli BL21-CodonPlus(DE3)RIL, pET23b vector; ultracentrifuged lysate supernatant, not purified
T1 sequence (Q06210 1-681 isoform Q06210-2): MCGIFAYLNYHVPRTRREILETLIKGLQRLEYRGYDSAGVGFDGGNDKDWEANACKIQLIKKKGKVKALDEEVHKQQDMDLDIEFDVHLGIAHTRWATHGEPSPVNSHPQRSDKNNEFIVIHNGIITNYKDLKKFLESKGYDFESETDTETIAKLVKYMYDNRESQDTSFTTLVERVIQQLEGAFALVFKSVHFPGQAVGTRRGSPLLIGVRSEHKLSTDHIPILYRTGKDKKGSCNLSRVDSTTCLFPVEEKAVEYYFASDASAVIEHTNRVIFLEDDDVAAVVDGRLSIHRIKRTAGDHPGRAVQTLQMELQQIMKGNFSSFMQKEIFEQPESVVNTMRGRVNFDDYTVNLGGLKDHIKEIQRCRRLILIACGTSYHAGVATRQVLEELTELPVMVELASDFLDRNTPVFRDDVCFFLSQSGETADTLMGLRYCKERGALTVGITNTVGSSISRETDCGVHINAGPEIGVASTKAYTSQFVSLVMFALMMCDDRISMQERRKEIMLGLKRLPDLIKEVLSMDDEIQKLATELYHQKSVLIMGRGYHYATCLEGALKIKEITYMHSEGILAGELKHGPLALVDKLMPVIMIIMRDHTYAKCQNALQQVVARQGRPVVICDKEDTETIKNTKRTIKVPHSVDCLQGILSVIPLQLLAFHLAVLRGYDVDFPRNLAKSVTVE
Procedure: (§1) GFAT activity was determined in accordance with Marshall et al. by means of spectrophotometry using a microplate (96 wells) (Journal of Biological Chemistry, vol. 266 No. 8, 4706–4712 (1991)) in the following manner. Glutamate produced by GFAT was allowed-to react with glutamate dehydrogenase (GDH), during which a reductive reaction of coenzyme APAD into APADH proceeded simultaneously. Changes in absorbance that accompany the reduction reaction of APAD to APADH are considered to represent GFAT activity.
(§2) Briefly, an appropriately diluted solution of a lyzate of GFAT1L- or GFAT1S-introduced E. coli (50 μl) was added to a substrate solution (200 μl) containing a sodium phosphate buffer (pH=7.5; 40 mM), potassium chloride (50 mM), EDTA (1.25 mM), APAD (0.3 mM), GDH (6 U/ml), glutamine (0–6 mM), and fructose-6-phosphate (F-6-P: 0–6 mM), and the mixture was allowed to react at 37° C. for 60 minutes. The absorbance change at 365 nm associated with the reaction was measured by use of a microplate reader.
(§3) In order to study the difference in terms of enzymatic behavior between GFAT1L and GFAT1S, Km values were determined using, as substrates, glutamine and F-6-P. Km values were calculated on the basis of :S/v−S plotting and v−v/S plotting, which were made with regard to the enzyme substrate concentration (S) and activity of the enzyme (reaction rate (v)). […]

GFAT1L = molecular target: T2, GFAT1L (Homo sapiens, UniProt Q06210); assay: GFAT activity assay (spectrophotometric, GDH/APAD coupled): Km values and inhibition pattern of UDP-G1cNAc, GFAT1L; assay type: biochemical
T2 construct: made in house; host or cells: E. coli BL21-CodonPlus(DE3)RIL, pET23b vector; ultracentrifuged lysate supernatant, not purified
T2 sequence (Q06210 whole entry): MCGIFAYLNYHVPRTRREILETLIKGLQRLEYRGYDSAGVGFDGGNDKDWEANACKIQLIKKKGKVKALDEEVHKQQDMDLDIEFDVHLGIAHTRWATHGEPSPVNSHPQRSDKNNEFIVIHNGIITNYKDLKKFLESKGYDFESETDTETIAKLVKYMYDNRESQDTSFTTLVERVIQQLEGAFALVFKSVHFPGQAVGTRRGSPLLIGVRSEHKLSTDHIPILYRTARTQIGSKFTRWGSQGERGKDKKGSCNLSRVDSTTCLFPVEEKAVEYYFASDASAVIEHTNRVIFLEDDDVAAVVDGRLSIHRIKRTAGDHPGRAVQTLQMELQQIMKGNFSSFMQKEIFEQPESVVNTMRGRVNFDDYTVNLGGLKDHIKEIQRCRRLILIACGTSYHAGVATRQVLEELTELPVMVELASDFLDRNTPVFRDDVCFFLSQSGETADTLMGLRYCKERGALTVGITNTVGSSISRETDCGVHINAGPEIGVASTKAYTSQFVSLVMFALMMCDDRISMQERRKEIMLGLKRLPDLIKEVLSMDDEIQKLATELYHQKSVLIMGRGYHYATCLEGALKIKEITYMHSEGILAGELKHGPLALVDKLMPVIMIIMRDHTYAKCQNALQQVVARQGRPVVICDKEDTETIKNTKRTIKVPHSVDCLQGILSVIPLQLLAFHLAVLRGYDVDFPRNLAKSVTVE
Procedure: as §1, §2, §3

[1] = F-6-P as substrate, UDP-G1cNAc 30, 100 μM
[2] = glutamine as substrate, UDP-G1cNAc 10, 30, 100 μM

CC(=O)N[C@H]1[C@@H](OP(=O)(O)OP(=O)(O)OC[C@H]2O[C@@H](n3ccc(=O)[nH]c3=O)[C@H](O)[C@@H]2O)O[C@H](CO)[C@@H](O)[C@@H]1O [UDP-G1cNAc, UDP-N-acetylglucosamine]
Inhibition pattern of UDP-G1cNAc against GFAT activity, F-6-P (GFAT1S; [1]): competitive inhibition
Inhibition pattern of UDP-G1cNAc against GFAT activity, Glutamine (GFAT1S; [2]): un-competitive inhibition
Inhibition pattern of UDP-G1cNAc against GFAT activity, F-6-P (GFAT1L; [1]): mixed inhibition
Inhibition pattern of UDP-G1cNAc against GFAT activity, Glutamine (GFAT1L; [2]): mixed inhibition
